Measured values reported in patent US20260176279A1, “DUAL RAF AND TUBULIN INHIBITORS AND METHODS OF USE THEREOF” (Deciphera Pharmaceuticals, LLC, priority 2023, published 2026).
Where two headings read alike, the source gives them in different places.

Key:
HCT-116 cells = assay: HCT-116 Cell Proliferation Assay; assay type: cell-based; settings: Homo sapiens
Protocol: HCT-116 cells (catalog #CCL-247) are obtained from the American Type Culture Collect (ATCC, Manassas, VA). Briefly, cells are grown in McCoy's 5A supplemented with 10% characterized fetal bovine serum (Invitrogen, Carlsbad, CA) and 1% Penicillin/Streptomycin/L-Glutamine at 37° C., 5% CO2, and 95% humidity. Cells are expanded until reaching 70-95% confluency at which point they are sub-cultured or harvested for assay use. A serial dilution of test compound is dispensed into a 384-well black clear bottom plate in triplicate. 375 cells are added per well in 50 μL complete growth medium in the 384-well plate. Plates are incubated for 67 to 72 h at 37° C., 5% CO2, and 95% humidity. At the end of the incubation, 40 μL of a […] solution of resazurin (Sigma, St. Louis, MO) in PBS is added to each well of the plate and plates are incubated for an additional 4 to 5 hours at 37° C., 5% CO2, and 95% humidity. Plates are read on a Synergy2 or equivalent reader (Biotek, Winooski, VT) using an excitation of 540 nm and an emission of 600 nm. Data is analyzed using Prism software (Graphpad, San Diego, CA) to calculate IC50 values.

HPAF-II cells = assay: HPAF-II Cell Proliferation Assay; assay type: cell-based; settings: Homo sapiens
Protocol: HPAF-II cells (catalog #CRL-1997) are obtained from the American Type Culture Collect (ATCC, Manassas, VA). Briefly, cells are grown in Minimum Essential Media supplemented with 10% characterized fetal bovine serum (Invitrogen, Carlsbad, CA) and 1% Penicillin/Streptomycin/L-Glutamine at 37° C., 5% CO2, and 95% humidity. Cells are expanded until reaching 70-95% confluency at which point they are sub-cultured or harvested for assay use. A serial dilution of test compound is dispensed into a 384-well black clear bottom plate in triplicate. 750 cells are added per well in 50 μL complete growth medium in the 384-well plate. Plates are incubated for 115 to 120 h at 37° C., 5% CO2, and 95% humidity. At the end of the incubation, 40 μL of a […] solution of resazurin (Sigma, St. Louis, MO) in PBS is added to each well of the plate and plates are incubated for an additional 18 to 24 h at 37° C., 5% CO2, and 95% humidity. Plates are read on a Synergy2 or equivalent reader (Biotek, Winooski, VT) using an excitation of 540 nm and an emission of 600 nm. Data is analyzed using Prism software (Graphpad, San Diego, CA) to calculate IC50 values.

MiaPaca-2 cells = assay: MiaPaca-2 Cell Proliferation Assay; assay type: cell-based; settings: Homo sapiens, MIA PaCa-2
Protocol: MiaPaca-2 cells (catalog #CRL-1420) are obtained from the American Type Culture Collect (ATTC, Manassas, VA). Briefly, cells were grown in DMEM supplemented with 10% characterized fetal bovine serum (Invitrogen, Carlsbad, CA), 2.5% New Zealand sourced horse serum and 1% Penicillin/Streptomycin/L-Glutamine at 37° C., 5% CO2, and 95% humidity. Cells are expanded until reaching 70-95% confluency at which point they are sub-cultured or harvested for assay use. For assays completed in 96-well plates, a serial dilution of test compound is dispensed into a 96-well black clear bottom plate in triplicate. Three thousand cells are added per well in 200 μL complete growth medium in the 96-well plate. Plates are incubated for 67 to 72 h at 37° C., 5% CO2, and 95% humidity. At the end of the incubation, 40 μL of a […] solution of resazurin (Sigma, St. Louis, MO) in PBS is added to each well of the plate and plates are incubated for an additional 5 to 6 hours at 37° C., 5% CO2, and 95% humidity. For 384-well assays, a threefold, 8-point serial dilution of compound was spotted column wise into a 384 well black, clear bottom, tissue culture treated plate using the Beckman Coulter Echo 650. Likewise, a threefold, 8-point serial dilution of cobimetinib was spotted row wise into the 384 well black, clear bottom plate containing compound. DMSO concentration was constant across all wells at 0.4%. Seven hundred fifty cells are added per well in 50 μL complete growth medium in each 384-well plate. Plates are incubated for 67 to 72 h at 37° C., 5% CO2, and 95% humidity. At the end of the incubation, 10 μL of a 440 μM solution of resazurin (Sigma, St. Louis, MO) in PBS is added to each well of the plate and plates are incubated for an additional 4 to 6 h at 37° C., 5% CO2, and 95% humidity. Plates are read on a Synergy2 or equivalent reader (Biotek, Winooski VT) using an excitation of 540 nm and an emission of 600 nm. Data is analyzed using Prism software (Graphpad, San Diego, CA) to calculate IC50 values.

B-Raf kinase = biological target: T1, B-Raf kinase (Homo sapiens, UniProt P15056); assay: Biochemical Assay for B-Raf (coupled pyruvate kinase/lactate dehydrogenase assay)
T1 construct: GST (N); purchased Sigma

C-Raf kinase = biological target: T2, C-Raf kinase (Homo sapiens, UniProt P04049, Y340D/Y341D); assay: Biochemical Assay for C-Raf (coupled pyruvate kinase/lactate dehydrogenase assay)
T2 construct: C-Raf residues 306-end; Y340D, Y341D with N-; GST (N); purchased Eurofins

tubulin = assay: Cellular Tubulin Polymerization Assay (HCT-116 cells); assay type: cell-based; settings: read-out: Tubulin Cellular; Table 5, HCT-116 cells
[1] = Table 2, inhibition of cell proliferation, read-out: HCT-116
[2] = Table 1, inhibition of biochemical activity, read-out: BRAF
[3] = Table 1, inhibition of biochemical activity, read-out: CRAF
[4] = Table 2, inhibition of cell proliferation, read-out: MiaPaca-2
[5] = HCT-116, Table 4, read-out: HCT-116 IC50
[6] = HPAF-II, Table 4, read-out: HPAF-II IC50
[7] = Table 4, read-out: MiaPaca-2 IC50

T2 sequence (P04049 307-648 Y340D/Y341D): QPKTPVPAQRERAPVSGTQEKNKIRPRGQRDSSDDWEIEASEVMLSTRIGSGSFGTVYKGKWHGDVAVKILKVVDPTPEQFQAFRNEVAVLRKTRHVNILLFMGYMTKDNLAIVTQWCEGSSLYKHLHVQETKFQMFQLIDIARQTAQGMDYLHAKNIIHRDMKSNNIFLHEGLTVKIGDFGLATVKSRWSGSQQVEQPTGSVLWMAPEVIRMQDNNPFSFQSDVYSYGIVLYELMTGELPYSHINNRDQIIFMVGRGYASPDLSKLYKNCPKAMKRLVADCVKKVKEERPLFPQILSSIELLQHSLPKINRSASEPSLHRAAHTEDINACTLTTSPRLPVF
T1 sequence (P15056 416-766): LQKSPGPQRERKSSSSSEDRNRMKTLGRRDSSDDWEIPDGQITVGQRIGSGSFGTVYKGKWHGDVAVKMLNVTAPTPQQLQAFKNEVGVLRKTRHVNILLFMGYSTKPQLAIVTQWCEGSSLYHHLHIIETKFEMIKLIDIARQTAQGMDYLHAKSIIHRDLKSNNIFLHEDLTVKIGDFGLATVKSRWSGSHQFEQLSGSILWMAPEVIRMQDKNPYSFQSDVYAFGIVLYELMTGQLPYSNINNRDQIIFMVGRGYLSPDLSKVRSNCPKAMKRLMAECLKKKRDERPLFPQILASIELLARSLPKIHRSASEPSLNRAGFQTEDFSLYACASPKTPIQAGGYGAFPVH

Compound | IC50 (HCT-116 cells; [1]) | IC50 (B-Raf kinase; [2]) | IC50 (C-Raf kinase; [3]) | IC50 (MiaPaca-2 cells; [4]) | IC50 (HCT-116 cells; [5]) | IC50 (HPAF-II cells; [6]) | further results
Cc1ccc2c(Nc3cccc(Cl)c3F)nccc2c1NC(=O)c1csc2c(N)ncnc12 [Belvarafenib, reference compound] |  |  |  |  |  |  | IC50 (HCT-116 cells; Table 5, read-out: HCT-116): 0.5 to 1 µM; IC50 (HPAF-II cells; Table 5, read-out: HPAF-II): 1 to 10 µM; IC50 (MiaPaca-2 cells; Table 5, read-out: MiaPaca-2): 1 to 10 µM
CC(=O)Nc1cc(-c2cc(-c3cc(NC(=O)Nc4ccc(C(F)(F)F)nc4)cnc3C)ccn2)ccn1 [Example 6] | 1 to 10 µM | < 0.1 µM | < 0.1 µM | 0.5 to 1 µM |  |  | 
CC(=O)Nc1cc(-c2cc(-c3cc(NC(=O)Nc4ccc(C(F)(F)F)nc4)ccc3C)cc(=O)n2C)ccn1 [Example 7] | 1 to 10 µM | < 0.1 µM | < 0.1 µM | 1 to 10 µM |  |  | 
CC(=O)Nc1cc(-c2cc(-c3cc(NC(=O)Nc4ccc(C(F)(F)F)nc4)ccc3C)nn(C)c2=O)ccn1 [Example 8] | 1 to 10 µM | 1 to 10 µM | 1 to 10 µM | 1 to 10 µM |  |  | 
Cc1ccc(NC(=O)Nc2ccc(C(F)(F)F)nc2)cc1-c1cc(-c2ccnc(NC(=O)CN(C)C)c2)c(=O)n(C)c1 [Example 11] | 0.5 to 1 µM | 0.1 to 0.5 µM | 0.1 to 0.5 µM | 0.5 to 1 µM |  |  | 
CC(=O)Nc1cc(-c2cncc(-c3cc(NC(=O)Nc4ccc(C(F)(F)F)nc4)ccc3C)n2)ccn1 [Example 12] | 0.1 to 0.5 µM | < 0.1 µM | < 0.1 µM | 0.1 to 0.5 µM |  |  | 
COCC(=O)Nc1cc(-c2cncc(-c3cc(NC(=O)Nc4ccc(C(F)(F)F)nc4)ccc3C)n2)ccn1 [Example 13] | 0.5 to 1 µM | < 0.1 µM | < 0.1 µM | 0.5 to 1 µM |  |  | 
Cc1ccc(NC(=O)Nc2ccc(C(F)(F)F)nc2)cc1-c1cncc(-c2ccnc(NC(=O)CC#N)c2)n1 [Example 14] | 1 to 10 µM | < 0.1 µM | < 0.1 µM | 1 to 10 µM |  |  | 
Cc1ccc(NC(=O)Nc2cnc(C(F)(F)F)nc2)cc1-c1cc(OCCO)nc(N2CCOCC2)c1 [Example 24, 1-(3-(2-(2-hydroxyethoxy)-6-morpholinopyridin-4-yl)-4-methylphenyl)-3-(2-(trifluoromethyl)pyrimidin-5-yl)urea] |  | 0.1 to 0.5 µM | < 0.1 µM | < 0.1 µM |  |  | IC50 (HCT-116 cells; HCT-116, Table 3, read-out: HCT-116 IC50): < 0.1 µM; IC50 (B-Raf kinase; Table 3, read-out: BRAF IC50): 0.1 to 0.5 µM; IC50 (C-Raf kinase; Table 3, read-out: CRAF IC50): 0.1 to 0.5 µM; IC50 (MiaPaca-2 cells; Table 3, read-out: MiaPaca-2 IC50): < 0.1 µM
Cc1ccc(NC(=O)Nc2ccc(C(F)(F)F)nc2)cc1-c1cc(OC2CCNCC2)nc(N2CCOCC2)c1 [Example 25, 1-(4-methyl-3-(2-morpholino-6-(piperidin-4-yloxy)pyridin-4-yl)phenyl)-3-(6-(trifluoromethyl)pyridin-3-yl)urea] | 0.5 to 1 µM | 0.1 to 0.5 µM | < 0.1 µM | 0.1 to 0.5 µM |  |  | 
Cc1ccc(NC(=O)Nc2cccnc2)cc1-c1cc(OCCO)nc(N2CCOCC2)c1 [Example 28] | 1 to 10 µM | 0.5 to 1 µM | < 0.1 µM | 0.1 to 0.5 µM |  |  | 
Cc1ccc(NC(=O)Nc2ccc(C(F)(F)F)nc2)cc1-c1cc(OCCO)nc(N2CCOCC2)c1 [Example 37] | < 0.1 µM | 0.1 to 0.5 µM | < 0.1 µM | < 0.1 µM |  |  | 
Cc1ccc(NC(=O)N2CC[C@@H](CC(F)(F)F)C2)cc1-c1cc(N[C@H](C)CO)nc(N2CCOCC2)c1 [Exarafenib, reference compound] |  |  |  |  |  |  | IC50 (tubulin): 1 to 10 µM
C[C@@H](NC(=O)c1ncnc(N)c1Cl)c1ncc(C(=O)Nc2cc(C(F)(F)F)c(Cl)cn2)s1 [Tovorafenib, reference compound] |  |  |  |  |  |  | IC50 (tubulin): 1 to 10 µM
Cc1ccc(NC(=O)NC2CCCCCC2)cc1-c1cc(OCCO)nc(N2CCOCC2)c1 [reference compound] |  |  |  |  | 1 to 10 µM | 1 to 10 µM | IC50 (MiaPaca-2 cells; [7]): 1 to 10 µM
Cc1ccc(NC(=O)N[C@@H]2CCc3ccccc32)cc1-c1cc(OCCO)nc(N2CCOCC2)c1 [reference compound] |  |  |  |  | 1 to 10 µM | 1 to 10 µM | IC50 (MiaPaca-2 cells; [7]): 1 to 10 µM
Cc1cc(F)c(NC(=O)Nc2cnn(C(C)(C)C)c2)cc1-c1cc(OCCN(C)C)nc(N2CCOCC2)c1 [reference compound] |  |  |  |  | 1 to 10 µM | 1 to 10 µM | IC50 (MiaPaca-2 cells; [7]): 1 to 10 µM
Cc1ccc(NC(=O)Nc2cn(C)nc2C(F)(F)F)cc1-c1cc(OCCO)nc(N2CCOCC2)c1 [reference compound] |  |  |  |  | 1 to 10 µM | 1 to 10 µM | IC50 (B-Raf kinase; Table 4, read-out: BRAF IC50): 1 to 10 µM; IC50 (C-Raf kinase; Table 4, read-out: CRAF IC50): 1 to 10 µM
Cc1ccc(NC(=O)Nc2cnn(CC(F)(F)F)c2)cc1-c1cc(OCCO)nc(N2CCOCC2)c1 [reference compound] |  |  |  |  | 1 to 10 µM | 1 to 10 µM | IC50 (B-Raf kinase; Table 4, read-out: BRAF IC50): 1 to 10 µM
CC(=O)Nc1cc(-c2cc(-c3cc(NC(=O)NC4CCC(F)(F)CC4)c(F)cc3C)cc(OCCO)n2)ccn1 [reference compound] |  |  |  |  | 0.5 to 1 µM | 0.5 to 1 µM | 
CNC(=O)c1cc(-c2cnnc(-c3cc(NC(=O)N4CCC(C(C)(C)C)C4)ccc3C)c2)ccn1 (stereo not drawn) [reference compound] |  |  |  |  | 1 to 10 µM | 1 to 10 µM | IC50 (MiaPaca-2 cells; [7]): 1 to 10 µM
CNC(=O)c1cc(-c2cc(-c3cc(NC(=O)NC4CCCCC4)c(F)cc3C)cc(OCCO)n2)ccn1 [reference compound] |  |  |  |  | 1 to 10 µM | 1 to 10 µM | 
